≈ marks a conversion by molar mass, not a printed value.

Holding throughout (assay type): cell-based
Experiment [1] has as its system Helicobacter pylori (2 ATCC strains and 25 clinical isolates). The experiment is described as follows: Antibacterial activity on Helicobacter pylori, agar dilution MIC, 27 strains. The settings on record: for Growth inhibition rate: share of 27 strains inhibited. The procedure: As test strains, 2 commercial ATCC strains ([…] and TACC43526 strain) of Helicobacter pylori, and 25 clinical isolates were used. Each of the strains was inoculated into a brain heart infusion agar medium containing 7% horse blood, and cultured under microaerophilic conditions including 5% of O2, 10% of CO2 and 85% of N2 at 37° C. After culture for 3 to 4 days, colonies of each strain formed on the medium were collected, and suspended in a brain heart infusion medium containing 10% of fetal calf serum so that turbidity was McFarland No. 1 (the number of bacteria was about 3×10^8/ml) to form a test bacterial suspension. On the other hand, a test compound (compound 4) was dissolved in dimethylsulfoxide, and a diluent in a double dilution series was prepared with dimethylsulfoxide so that the final concentration of the solvent was 0.5%, to form a test drug solution. 100 μl of the test drug solution was mixed with 20 ml of a brain heart infusion agar medium containing 7% horse blood and about 45° C., and the resultant mixture was solidified by allowing to cool to form a test medium. Next, about 5 μl of test bacterial suspension was inoculated into the medium by using a micro planter, and then cultured under microaerophilic conditions including 5% of O2, 10% of CO2 and 85% of N2 at 37° C. for 4 days. […] The minimum concentration at which growth of 50% of the total 27 stains used in the test was inhibited was MIC50, and the minimum concentration at which growth of 90% the strains used was inhibited was MIC90.

Experiment [2] concerns Helicobacter pylori (three strains of ATCC43504, ATCC43526, and TK1402). The experiment is described as follows: Antibacterial activity on Helicobacter pylori, disk method, lethal concentration (LC). The settings on record: culture 4 days. The protocol:
A blank disk (produced by Beckton Deckinson Co.,) was placed in a brain heart infusion agar medium containing 7% horse blood and coated with Helicobacter pylori (three strains of ATCC43504, ATCC43526, and TK1402). The disk was soaked with 10 μl of a solution of a test compound in dimethylsulfoxide, and then cultured under microaerophilic conditions including 5% of O2, 10% of CO2 and 85% of N2 at 37° C. for 4 days. After the completion of culture, the diameter of a growth inhibition circle formed around the disk was measured, and the lethal concentration (LC) of each test compound was computed according to the computation expression of Hultmark et al. (The EMBO Journal, 2, 571-576, 1983).

In experiment [3] the test system is human platelet aggregation. The experiment is described as follows: Effect on human platelet aggregation (ADP-induced, in the presence of SQ-29548). The settings on record: human PRP, SQ-29548 added, aggregation induced with ADP, compound 10 μM; control 38 ± 4.9. The protocol: The blood collected from healthy persons was centrifuged to separate platelet-rich plasma (PRP) and platelet-poor plasma (PPP). […] Experiment was carried out for 3 examples per group.

On to `CC(C)(Oc1ccccc1)C(O)C(F)=CC1C(O)CC2Oc3c(CCC(=O)O)cccc3C21` (stereo not drawn) [Example 4, 14-Fluoro-16-methyl-16-phenoxy-15-epi-2,5,6,7,18,19,20-heptanor-4,8-inter-m-phenylene PGI2], for which the “Number of strains inhibited/total strains” value in experiment [1] (concentration 12.5 μM) is 11/27; in experiment [1] (concentration 25 μM), 20/27; in experiment [1] (concentration 50 μM), 26/27. Besides, the results for the Growth inhibition rate in experiment [1] (concentration 12.5 μM), in experiment [1] (concentration 25 μM) and in experiment [1] (concentration 50 μM) were 40.7%, 74.1% and 96.3%, respectively. In experiment [1] (minimum concentration inhibiting growth of 50% of the total 27 strains), the MIC50 came out at 12.5 µM (≈ 5.71 µg/mL). The compound also registered an MIC90 in experiment [1] (minimum concentration inhibiting growth of 90% of the total 27 strains) of 50 µM (≈ 22.8 µg/mL).
As to `COC(=O)CCc1cccc2c1OC1CC(OC(C)=O)C(C=C(F)C(=O)C(C)(C)Oc3ccccc3)C21` (stereo not drawn) [Example 1, 14-Fluoro-16-methyl-15-oxo-16-phenoxy-2,5,6,7,18,19,20-heptanor-4,8-inter-m-phenylene PGI2 Methyl Ester, 11-Acetate], the “Antibacterial activity (lethal concentration LC)” value in experiment [2] (Helicobacter pylori strain ATCC43504) stood at 141 ± 27 µM; in experiment [2] (Helicobacter pylori strain ATCC43526) it was 169 ± 6 µM; in experiment [2] (Helicobacter pylori strain TK1402), 151 ± 4 µM.
In the case of `CC(C)(Oc1ccccc1)C(O)C(F)=CC1C(O)CC2Oc3c(CCC(=O)O)cccc3C21` (stereo not drawn) [Example 3, 14-Fluoro-16-methyl-16-phenoxy-2,5,6,7,18,19,20-heptanor-4,8-inter-m-phenylene PGI2], in experiment [3], the Platelet aggregation turned out to be 54 ± 1.7%.

For the origin of these results see patent US6555559B1, “5,6,7-trinor-4,8-inter-m-phenylene PGI2, derivative and drugs containing the same” (Toray Industries, Inc., priority 1998, dated 2003).
